These results are taken from patent US20100292210A1, “Novel Compounds for A-Beta-Related Pathologies” (AstraZeneca AB, priority 2009, published 2010).

The experiment concerns Aβ42 release. As to the kind of experiment: Aβ42 release from HEK cells stably expressing APPswe, Meso Scale Discovery electrochemiluminescence assay. It is filed as cell-based. Particulars: Homo sapiens, HEK293; HEK cell line stably expressing APPswe; 4-6 h incubation with test compound; Aβ42 secreted to cell medium; read-out: pIC50 values of Aβ42 release (converted). The procedure:
The level of activity of the compounds on Aβ formation was tested using the following method:
Compounds were diluted in 100% DMSO and stored at […] prior to use. Human Embryonic Kidney (HEK) cell line stably expressing APP with the Swedish mutation (APPswe) were cultured using Dulbecco's Modified Eagles medium (DMEM) supplied with […] glucose, Na-pyruvate and GlutaMAX with 10% FBS, 100 U/ml penicillin-streptomycin (PEST) respectively, 1×non-essential amino acids (NEAA), […], 100 μg/ml Zeocine. Cells at about 80% confluence were washed with PBS, detached from culture flasks using 1×Trypsin/EDTA diluted in PBS, re-suspended in cell media and plated in 384-well poly-d-lysine coated cell culture plates at about 10000-15000 cells/well, in 25 μL cell media. Optionally, cryo-preserved cells (frozen and stored at −140° C. in 90% cell media and 10% DMSO) were thawed, washed and plated as above. Next the cells were incubated for 15-24 h at 37° C. and 5% CO2, after which cell medium was changed. Fresh medium containing test compound diluted ×200 from prepared compound plate was added to the cells before further incubation for 4-6 hours at 37° C. and 5% CO2. After incubation with test compound the amount of Aβ peptides, including Aβ42, Aβ40, Aβ39, Aβ38 and Aβ37, secreted to cell medium was analyzed using the electrochemiluminescence assay technology from Meso Scale Discovery Technology, in combination with specific antibodies raised against the different Aβ peptides. Potential cytotoxic effects of the compounds were usually assayed by measuring the ATP content (ViaLight) from cell lysate.
Turning to `COc1cc(Nc2ccc3c(n2)O[C@H](c2ccccc2)CN(C2CC2)C3)ccc1-n1cnc(C)n1` [Example 45, (R)-4-Cyclopropyl-N-(3-methoxy-4-(3-methyl-1H-1,2,4-triazol-1-yl)phenyl)-2-phenyl-2,3,4,5-tetrahydropyrido[3,2-f][1,4]oxazepin-8-amine], the IC50 is 0.0251 µM.

Take `COc1cc(Nc2ccc3c(n2)OC(c2ccccn2)CN(CC#N)C3)ccc1-n1cnc(C)c1` (stereo not drawn) [Example 36, 2-(8-(3-Methoxy-4-(4-methyl-1H-imidazol-1-yl)phenylamino)-2-(pyridin-2-yl)-2,3-dihydropyrido[3,2-f][1,4]oxazepin-4(5H)-yl)acetonitrile]: the IC50 is 0.158 µM.

In the case of `COc1cc(Nc2cnc3c(n2)O[C@H](c2ccccc2)CN(CC#N)C3)ccc1-n1cnc(C)c1` [Example 38, (R)-2-(3-(3-methoxy-4-(4-methyl-1H-imidazol-1-yl)phenylamino)-6-phenyl-6,7-dihydropyrazino[2,3-f][1,4]oxazepin-8(9H)-yl)acetonitrile], the IC50 was 0.1 µM.

`COc1cc(Nc2ccc3c(n2)O[C@H](c2ccccc2)CN(CC#N)C3)ccc1-n1cnc(C)c1` [Example 47, (R)-2-(8-(3-Methoxy-4-(4-methyl-1H-imidazol-1-yl)phenylamino)-2-phenyl-2,3-dihydropyrido[3,2-f][1,4]oxazepin-4(5H)-yl)acetonitrile]: the IC50 was 0.0158 µM.

As for `Cc1nccn1-c1ccc(Nc2ccc3c(n2)N(C2CCCC2)CCN(C)C3=O)cc1` [Example 25, 1-cyclopentyl-4-methyl-8-(4-(2-methyl-1H-imidazol-1-yl)phenylamino)-3,4-dihydro-1H-pyrido[2,3-e][1,4]diazepin-5(2H)-one], the IC50 was 5.01 µM.

As for `Cc1nccn1-c1ccc(Nc2ccc3c(n2)OC(c2ccccc2)CN(C)C3)cn1` (stereo not drawn) [Example 23, 4-methyl-N-(6-(2-methyl-1H-imidazol-1-yl)pyridin-3-yl)-2-phenyl-2,3,4,5-tetrahydropyrido[3,2-f][1,4]oxazepin-8-amine], the IC50 was 0.501 µM.

Turning to `COc1nc(Nc2ccc3c(n2)OC(c2cccc(C)n2)CN(C)C3)ccc1-c1cnn(C)c1` (stereo not drawn) [Example 53, N-(6-Methoxy-5-(1-methyl-1H-pyrazol-4-yl)pyridin-2-yl)-4-methyl-2-(6-methylpyridin-2-yl)-2,3,4,5-tetrahydropyrido[3,2-f][1,4]oxazepin-8-amine], the IC50 is 0.0501 µM.

As to `Cc1cn(-c2ccc(Nc3ccc4c(n3)OC(c3ccccc3)CN(C)C4)cc2F)cn1` (stereo not drawn) [Example 16, N-(3-fluoro-4-(4-methyl-1H-imidazol-1-yl)phenyl)-4-methyl-2-phenyl-2,3,4,5-tetrahydropyrido[3,2-f][1,4]oxazepin-8-amine], the IC50 is 0.0794 µM.

As to `COc1cc(Nc2ccc3c(n2)OC(C2CC2)CN(C)C3)ccc1-n1cnc(C)n1` (stereo not drawn) [Example 51, 2-Cyclopropyl-N-(3-methoxy-4-(3-methyl-1H-1,2,4-triazol-1-yl)phenyl)-4-methyl-2,3,4,5-tetrahydropyrido[3,2-f][1,4]oxazepin-8-amine], the IC50 was 0.501 µM.

For `COc1cc(Nc2ccc3c(n2)O[C@H](c2ccccc2)CNC3)ccc1-n1cnc(C)c1` [Example 55, (R)—N-(3-Methoxy-4-(4-methyl-1H-imidazol-1-yl)phenyl)-2-phenyl-2,3,4,5-tetrahydropyrido[3,2-f][1,4]oxazepin-8-amine], the IC50 was 0.0316 µM.

Turning to `COc1cc(Nc2ccc3c(n2)O[C@H](c2ccccc2)CN(CCO)C3)ccc1-n1cncc1C` [Example 34, (R)-2-(8-(3-Methoxy-4-(5-methyl-1H-imidazol-1-yl)phenylamino)-2-phenyl-2,3-dihydropyrido[3,2-f][1,4]oxazepin-4(5H)-yl)ethanol], the IC50 is 0.251 µM.

On to `CN1Cc2ccc(Nc3ccc(-c4cnn(C)c4)nc3)nc2O[C@H](c2ccccc2)C1` [Example 58, (R)-4-Methyl-N-(6-(1-methyl-1H-pyrazol-4-yl)pyridin-3-yl)-2-phenyl-2,3,4,5-tetrahydropyrido[3,2-f][1,4]oxazepin-8-amine], for which the IC50 is 0.316 µM.

In the case of `Cn1cc(-c2ccc(Nc3ccc4c(n3)O[C@H](c3ccccc3)CNC4)nc2)cn1` [Example 57, (R)—N-(5-(1-Methyl-1H-pyrazol-4-yl)pyridin-2-yl)-2-phenyl-2,3,4,5-tetrahydropyrido[3,2-f][1,4]oxazepin-8-amine], the IC50 is 0.126 µM.

For the molecule `COc1cc(Nc2ccc3c(n2)OC(c2cc(C)nn2C)CN(CC#N)C3)ccc1-n1cnc(C)c1` (stereo not drawn) [Example 33, 2-(2-(1,3-Dimethyl-1H-pyrazol-5-yl)-8-(3-methoxy-4-(4-methyl-1H-imidazol-1-yl)phenylamino)-2,3-dihydropyrido[3,2-f][1,4]oxazepin-4(5H)-yl)acetonitrile], the IC50 is 0.316 µM.

Regarding `COc1nc(Nc2ccc3c(n2)O[C@H](c2ccccc2)CN(C(C)=O)C3)ccc1-n1cnc(C)c1` [Example 11, (R)-1-(8-(6-methoxy-5-(4-methyl-1H-imidazol-1-yl)pyridin-2-ylamino)-2-phenyl-2,3-dihydropyrido[3,2-f][1,4]oxazepin-4(5H)-yl)ethanone], the IC50 was 0.0158 µM.

In the case of `CN1Cc2ccc(Nc3ccc(-c4cnn(C)c4)cc3)nc2O[C@H](c2ccccc2)C1` [Example 59, (R)-4-Methyl-N-(4-(1-methyl-1H-pyrazol-4-yl)phenyl)-2-phenyl-2,3,4,5-tetrahydropyrido[3,2-f][1,4]oxazepin-8-amine], the IC50 is 0.0794 µM.

Take `COc1nc(Nc2ccc3c(n2)O[C@H](c2ccccc2)CNC3)ccc1-c1cnn(C)c1` [Example 56, (R)—N-(6-Methoxy-5-(1-methyl-1H-pyrazol-4-yl)pyridin-2-yl)-2-phenyl-2,3,4,5-tetrahydropyrido[3,2-f][1,4]oxazepin-8-amine]: the IC50 is 0.01 µM.

Regarding `CN1Cc2ccc(Nc3ccc(-n4ccnc4)cc3)nc2OC(c2ccccc2)C1` (stereo not drawn) [Example 18, N-(4-(1H-imidazol-1-yl)phenyl)-4-methyl-2-phenyl-2,3,4,5-tetrahydropyrido[3,2-f][1,4]oxazepin-8-amine], the IC50 was 0.1 µM.

Consider `COc1cc(Nc2ccc3c(n2)O[C@H](c2ccccc2)CN(CCO)C3)ccc1C#N` [Example 29, (R)-4-(4-(2-Hydroxyethyl)-2-phenyl-2,3,4,5-tetrahydropyrido[3,2-f][1,4]oxazepin-8-ylamino)-2-methoxybenzonitrile], for which the IC50 is 1.26 µM.

For `Cc1cncn1-c1ccc(Nc2ccc3c(n2)O[C@H](c2ccccc2)CN(CCO)C3)cc1` [Example 30, (R)-2-(8-(4-(5-methyl-1H-imidazol-1-yl)phenylamino)-2-phenyl-2,3-dihydropyrido[3,2-f][1,4]oxazepin-4(5H)-yl)ethanol], the IC50 is 0.631 µM.

As to `COc1cc(Nc2ccc3c(n2)OC(c2cccc(C)n2)CN(C)C3)ccc1-n1cnc(C)n1` (stereo not drawn) [Example 52, N-(3-Methoxy-4-(3-methyl-1H-1,2,4-triazol-1-yl)phenyl)-4-methyl-2-(6-methylpyridin-2-yl)-2,3,4,5-tetrahydropyrido[3,2-f][1,4]oxazepin-8-amine], the IC50 is 0.398 µM.
